In series [1] the test system is endogenous rat Aβ1-40 (Aβ40) in cortex. Kind of series: Cortical Aβ40 in rats after oral dosing (Luminex-based immunodetection). The conditions noted are these: read-out: Change in rat cortex Aβ40. The class given is in vivo.
Description: The following procedures were used.
Male CD rats (˜100 g; Crl:CD(SD); Charles River Laboratories, Kingston, N.Y.) were group housed and acclimated to the vivarium for 5-7 days prior to use in a study. Compounds were formulated in 20% hydroxypropyl-β-cyclodextrin and administered orally with a dosing volume of 5 ml/kg for rats. Three h after drug administration, rats were euthanized with excess CO2. The brain was removed from the skull and immediately frozen on dry ice. All tissues were stored at −70° C. until Aβ quantification.
Ab585 was labeled with biotin (b-Ab585) by first dialyzing the antibody sample extensively versus PBS (pH 7.8) to remove impurities, followed by dilution to between 1 and 2 mg/mL protein concentration. EZ-Link Sulfo-NHS-LC-Biotin (Pierce) was dissolved in PBS (pH 7.8) at a concentration of 1 mg/mL immediately prior to use. Ab585 was labeled with EZ-Link Sulfo-NHS-LC-biotin using a 10:1 biotin:antibody ratio by incubation at room temperature for 1 hour. The labeling reaction was quenched by addition of 1.0 M glycine to a final concentration of 0.1 M followed by 10 minute incubation at room temperature. Glycine was removed by extensive dialysis versus PBS.
The antibody was coupled to the beads using the Bio-Plex Amine Coupling Kit (Bio-Rad) as per the manufacturer's recommendations.
Rat cortex Aβ40 levels were measured from guanidine HCl extracts of individual rat cortices using a Luminex-based immunodetection assay. Rat brains were thawed briefly at 37° C. and both mid- and hindbrain regions were removed. The remaining material, consisting primarily of cortex (˜800 mg) was carried through the guanidine extraction procedure. Cortices were added to a 2 ml BioPur tube (Eppendorf) along with a 6.35 mm chrome-coated steel ball and 1.0 ml of sucrose homogenization buffer (20 mM HEPES [pH 7.5], 50 mM KCl, 50 mM sucrose, 2 mM EDTA, 2 mM EGTA supplemented with complete protease inhibitors [Roche, EDTA-free]). Samples were then homogenized by agitation for 1.5 min at 30 cycles/sec in a MM300 tissue mixer (Retsch®). The resulting cortical homogenate was extracted with guanidine-HCl by mixing 67 μl of homogenate with 133 μl of 5 M Guanidine HCl, 50 mM Tris HCl (pH 8.0). To maximize the efficiency of Aβ extraction, samples were vortexed and then sonicated for 2 minutes in an ice bath using an Ultrasonics XL cup horn sonicator at a power setting of 8 (Heat Systems, Inc.). Insoluble material was removed by ultracentrifugation using a using a TLA-55 rotor in a TL-100 benchtop centrifuge (Beckman) at 100,000×g for 30 minutes. The resulting supernatant was then either diluted 1:10 in 5 M guanidine HCl, 0.05 M Tris HCl (pH 8.0) for protein analysis (BCA protein assay, Pierce Biochemicals) or assayed neat for Aβ40 levels. The Luminex rodent Aβ40 assay was performed as follows. First, 96 well filter binding plates (Millipore, catalogue # MSBVN12) were wetted with 100 μl of 1×LAβ40 buffer (0.05 M HEPES [pH 7.5], 0.2% BSA, 0.2% Tween-20, 0.15 M NaCl) by vacuum filtration on a Millipore 96-well manifold. The plate bottom was sealed and 100 μl of 1×LAβ40 buffer was added to each well followed by addition of 50 μl each of G2-10:COOH beads (1000 beads/well) and 50 μl b-Ab585 at 0.5 μg/ml in 1×LAβ40 buffer. Guanidine HCl was added to synthetic rodent Aβ40 standards in order to control for the effect of guanidine in brain extracts on the assay performance. Ten microliters of cortical extract, rodent Aβ40 standards or cortical extract from amyloid precursor protein knockout mice (to define background immunoreactivity) was added to each well. Plates were covered and incubated overnight at 4° C. Following the incubation, wells were cleared by vacuum and washed twice with 100 μl of 1×LAβ40 buffer on a Millipore manifold.
The test system of another series is Caco-2 cell line. In words: Caco-2 bi-directional permeability. The conditions noted are these: permeability apical to basolateral. Type of series: in vitro ADME. Background: Caco-2 cells form a polarised layer with tight junctions and transporters.
Series [2] deals with soluble human BACE1 catalytic domain (Homo sapiens (Human), UniProt P56817). In words: BACE1 HTRF FRET assay. The class given is biochemical. The conditions noted are these: Ki calculated from IC50 using the Cheng-Prusoff equation; read-out: BACE-1 Ki.
In series [3] the target is purified human autoBACE-2 (Homo sapiens (Human), UniProt Q9Y5Z0). Kind of series: BACE-2 assay (BACE-HTRF, time-resolved endpoint proteolysis). The class given is biochemical. The conditions noted are these: Ki calculated from IC50 using the Cheng-Prusoff equation.
Description: Inhibitor IC50s at purified human autoBACE-2 were determined in a time-resolved endpoint proteolysis assay that measures hydrolysis of the QSY7-[sequence]-Eu-amide FRET peptide substrate (BACE-HTRF assay). […] DMSO was present at 5% final concentration in the assay. Following laser excitation of sample wells at 320 nm, the fluorescence signal at 620 nm was collected for 400 ms following a 50 μs delay on a RUBYstar HTRF plate reader (BMG Labtechnologies). Raw RFU data was normalized to maximum (1.0 nM BACE/DMSO) and minimum (no enzyme/DMSO) RFU values. […] The Ki values were calculated from the IC50 using the Cheng-Prusoff equation.
The next series concerns P-gp. Kind of series: Caco-2 bi-directional permeability. Type of series: in vitro ADME. The conditions noted are these: human, Caco-2.

Read-outs that look alike come from different tables or passages of the source.

Sequence of purified human autoBACE-2 (Q9Y5Z0 63-473 limits assumed): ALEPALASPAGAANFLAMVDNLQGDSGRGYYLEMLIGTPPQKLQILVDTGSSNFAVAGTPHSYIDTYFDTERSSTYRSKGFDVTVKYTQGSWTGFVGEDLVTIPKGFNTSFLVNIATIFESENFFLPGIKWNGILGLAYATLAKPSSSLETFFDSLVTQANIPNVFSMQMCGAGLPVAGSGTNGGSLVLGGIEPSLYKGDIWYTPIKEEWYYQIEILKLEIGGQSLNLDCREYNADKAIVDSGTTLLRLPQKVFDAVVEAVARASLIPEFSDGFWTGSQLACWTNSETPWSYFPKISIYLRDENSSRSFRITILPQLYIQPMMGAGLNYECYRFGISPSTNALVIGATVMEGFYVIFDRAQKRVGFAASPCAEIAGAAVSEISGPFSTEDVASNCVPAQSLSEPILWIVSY
Sequence of soluble human BACE1 catalytic domain (P56817 75-416): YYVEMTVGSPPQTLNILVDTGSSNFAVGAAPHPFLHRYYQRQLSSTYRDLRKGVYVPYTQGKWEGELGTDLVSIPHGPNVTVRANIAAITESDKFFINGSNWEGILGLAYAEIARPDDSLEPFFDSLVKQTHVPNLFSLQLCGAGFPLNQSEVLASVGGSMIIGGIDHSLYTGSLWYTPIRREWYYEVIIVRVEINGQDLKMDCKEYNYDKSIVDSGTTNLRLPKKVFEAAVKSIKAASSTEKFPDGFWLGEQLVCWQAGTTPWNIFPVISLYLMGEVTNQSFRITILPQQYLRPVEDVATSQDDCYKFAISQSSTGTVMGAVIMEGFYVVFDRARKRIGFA
Description for Caco-2 cell line: (§1) The bi-directional permeability with efflux potential of selected compounds of the invention vs. otherwise structurally identical iminopyrimidinones (collectively referred to as test compounds, shown in the table below) were assessed using Caco-2 cell line. The Caco-2 cells were maintained in DMEM (Dulbecco's Modified Eagle Medium) containing 10% fetal bovine serum, 1% non-essential amino acids, 2 mM L-glutamine, and 1% penicillin-streptomycin in an incubator at ˜37° C. in an atmosphere of 5% CO2 and about 90% relative humidity. The cell culture medium was changed three times weekly. Caco-2 cell monolayers were grown on polyethylene terephthalate filters using 24-well BD Falcon™ Cell Culture Insert Plates (0.33 cm^2 insert area, 1 μm pore size; BD BioSciences, Bedford, Mass.). The culture medium of the plate was changed every other day until used for the transport experiment (21-28 days post seeding).
(§2) The transport buffer (TM) was Hank's balanced salt solution (HBSS) with 10 mM HEPES and 25 mM glucose (pH 7.4) for dosing and TM with 4% bovine serum albumin for receiver (pH 7.4). The bi-directional permeability of the test compounds were tested at concentrations of 1, 10 and 100 μM was measured in triplicate with 2-hr incubation. The cell monolayer integrity was monitored with pre- and post-experimental trans-epithelial electrical resistance and post-experimental Lucifer Yellow (LY) permeability with 1 hr incubation.
(§3) The apparent permeability, recovery and efflux ratio values were calculated using the following equations:
(§4) where, • dCR/dt: The slope of the accumulative concentration in the receiver compartment versus time incubation (μM·s^−1) • C0hr: Donor concentration (μM) immediately after dosing • CD, final: Donor concentration (μM) at the end of incubation • S: Membrane surface area (cm^2) • VD: Volume of donor compartment (mL) • VR: Volume of receiver compartment (mL) • Papp-BLtoAP: Permeability from basolateral (BL) to apical (AP) transport
Description for P-gp: as §1, §2, §3, §4

For `CN1C(=N)N[C@](C)(c2cc(NC(=O)c3ccc(Cl)cn3)ccc2F)CC1=O` [Iminopyrimidinone 34, reference compound], the change in vivo at 10 mg/kg in series [1] (po, 3 h) is -19%. For the same compound, in the series with Caco-2 cell line, the “Caco-2 AP→BL” value is 0 nm/s.
For `Cc1ccc(C(=O)Nc2ccc(F)c([C@]3(C)CC(=O)N(C)C(=N)N3)c2)nc1` [Iminopyrimidinone 35], the “Caco-2 AP→BL” value in the series on Caco-2 cell line stood at 0 nm/s.
On to `COc1cnc(C(=O)Nc2cc(F)c(F)c([C@]3(C)CS(=O)(=O)N(C)C(=N)N3)c2)cn1` [Example 40di], for which the inhibition constant Ki in series [2] is 1.05 nM; in series [3], 2.15 nM. Also, in series [1] (rats, 3 h after a 10 mg/kg oral dose, vs vehicle cohort), the change in vivo at 10 mg/kg is -38%. The efflux ratio at 2 h with P-gp was 2.

In general, Ki refers to the dissociation constant of the complex between target and ligand, obtained from inhibition or displacement. Usually efflux ratio stands for a quotient of directional permeabilities that is used to spot active efflux.
